Measurements reported in patent US10647700B2, “EZH2 inhibitor and use thereof” (TARAPEUTICS SCIENCE INC., priority 2017, dated 2020).

Key:
[1] = biological target: PRC2 protein complex comprising EZH2(Y641F) (Homo sapiens (Human), UniProt Q15910, Y641F); experiment: EZH2(Y641F) TR-FRET enzymatic activity assay; settings: for activity compared with control compounds in the assay using a TR-FRET kit: versus GSK126 and EPZ6438
Method: Subsequently 5 μL of the assay antibody, H3K27me3-Eu(K)Ab (purchased from cisbio bioassays, USA, #61 KC3KAE) and 5 μL Streptavidin-XL665 (purchased from cisbio bioassays, USA, #610SAXLA), were added and incubated for 1 hour at room temperature.

[2] = test system: H3K27m3 methylation in Pfeiffer cells; experiment: Western Blot of H3K27m3 methylation in Pfeiffer cells; assay type: cell-based; settings: for IC50: 72 hours treatment, H3K27m3 methylation by Western Blot; for effect compared with control compounds in Western Blot verification on cells: versus EPZ6438 and GSK126
Method: Meanwhile, the inventors further conducted Western Blot with Pfeiffer cells (purchased from ATCC, USA) for verification. […] Effect of compounds on H3K27m3 methylation in cells was assessed.

[3] = biological target: EZH2 (Homo sapiens (Human), UniProt Q15910); experiment: E-cadherin promoter luciferase reporter gene primary screening in 293T cells; assay type: cell-based; settings: 293T cells treated for 24 hours, Dual-Glo luciferase; for 1 μM relative fluorescence intensity: compound 1 μM; for 10 μM relative fluorescence intensity: compound 10 μM
Description: EZH2 suppresses the expression of downstream E-cadherin, and upon EZH2 suppression, expression of E-cadherin will increase. Based on such principle, a reporter gene expression vector was constructed using luciferase.
The amplified fragments after PCR and the PGL4.1 vector (purchased from TAKARA, Japan) were respectively subjected to enzyme digestion with SacI and BglII (purchased from TAKARA, Japan), and then purified with PCR cleanup kit (Axygen PCR cleanup kit). Subsequently, the purified and enzyme-digested PCR products was ligated to the purified and enzyme-digested PGL4.1 vector using ligase solution I (DNA Ligation Kit Ver.2.1, purchased from TAKARA, Japan), and subjected to transformation. Single clones were then screened out and subjected to sequencing, and the obtained positive plasmid containing promoter fragments of Ecadherin was named E-cadherin RE-PGL4.1.
Meanwhile, a Renilla fluorescent vector was constructed using PCDNA4.1 (purchased from Thermofisher, USA) as the template to amplify the fragment of CMV promoter. After enzymatic digestion of the amplified CMV sequences and pGL4.70 vector (purchased from Promega, USA) with KpnI and XhoI (purchased from Promega, USA), purification was conducted with PCR cleanup kit (Axygen PCR cleanup kit). Then the enzyme-digested PCR product was ligated to the enzyme-digested PGL4.70 vector using ligase solution I (DNA Ligation Kit Ver.2.1, purchased from TAKARA, Japan) and the resultant was subjected to transformation. Subsequently single clones were screened and subjected to sequencing, and the obtained plasmid that contained CMV sequence was named as Plasmid Renilla luciferase-pGL4.70. Said plasmid utilized CMV promoter to achieve high expression of Renilla luciferase, which served as the control fluorescence for the primary screening system.
The cells were firstly added with 20 μL Dual-Glo® Luciferase Assay Reagent, then incubated under room temperature for 10 minutes, and read on microplate reader Spectramax i3 (Molecular Devices, USA) to obtain the data of primary screening, which is shown in Table 1.

Sequence of PRC2 protein complex comprising EZH2(Y641F) (Q15910 whole entry Y641F): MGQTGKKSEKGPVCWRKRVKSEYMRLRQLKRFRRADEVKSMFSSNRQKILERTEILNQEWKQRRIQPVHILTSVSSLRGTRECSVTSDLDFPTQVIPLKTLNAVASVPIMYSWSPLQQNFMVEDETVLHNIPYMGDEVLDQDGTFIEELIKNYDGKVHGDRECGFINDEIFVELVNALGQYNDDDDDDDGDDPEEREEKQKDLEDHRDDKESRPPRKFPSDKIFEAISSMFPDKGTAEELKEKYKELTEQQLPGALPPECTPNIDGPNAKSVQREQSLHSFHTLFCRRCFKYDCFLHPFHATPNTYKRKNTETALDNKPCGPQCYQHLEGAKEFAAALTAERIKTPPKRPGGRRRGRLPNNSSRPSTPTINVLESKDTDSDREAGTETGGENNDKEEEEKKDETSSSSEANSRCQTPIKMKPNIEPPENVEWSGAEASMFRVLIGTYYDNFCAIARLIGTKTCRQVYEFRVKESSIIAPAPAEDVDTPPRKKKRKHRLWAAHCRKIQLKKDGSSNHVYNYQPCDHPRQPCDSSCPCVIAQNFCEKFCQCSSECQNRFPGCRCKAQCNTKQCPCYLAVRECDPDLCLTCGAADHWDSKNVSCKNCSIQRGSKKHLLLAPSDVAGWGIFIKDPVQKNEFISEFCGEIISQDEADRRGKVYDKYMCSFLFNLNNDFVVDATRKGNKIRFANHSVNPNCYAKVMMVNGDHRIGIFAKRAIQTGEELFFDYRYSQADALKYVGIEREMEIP
Sequence of PRC2 protein complex comprising EZH2(Y641F) (O75530 whole entry partner): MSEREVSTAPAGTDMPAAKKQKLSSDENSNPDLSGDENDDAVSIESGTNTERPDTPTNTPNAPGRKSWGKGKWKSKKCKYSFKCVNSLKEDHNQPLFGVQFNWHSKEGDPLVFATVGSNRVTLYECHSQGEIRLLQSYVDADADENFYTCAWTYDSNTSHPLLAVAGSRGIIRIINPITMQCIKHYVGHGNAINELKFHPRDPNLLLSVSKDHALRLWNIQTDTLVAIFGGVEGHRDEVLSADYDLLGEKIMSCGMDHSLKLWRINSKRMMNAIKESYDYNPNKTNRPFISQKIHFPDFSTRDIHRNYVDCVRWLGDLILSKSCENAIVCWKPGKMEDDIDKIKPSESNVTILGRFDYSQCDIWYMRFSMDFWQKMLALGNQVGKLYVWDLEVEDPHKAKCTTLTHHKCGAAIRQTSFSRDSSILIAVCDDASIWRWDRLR
Sequence of PRC2 protein complex comprising EZH2(Y641F) (Q15022 whole entry partner): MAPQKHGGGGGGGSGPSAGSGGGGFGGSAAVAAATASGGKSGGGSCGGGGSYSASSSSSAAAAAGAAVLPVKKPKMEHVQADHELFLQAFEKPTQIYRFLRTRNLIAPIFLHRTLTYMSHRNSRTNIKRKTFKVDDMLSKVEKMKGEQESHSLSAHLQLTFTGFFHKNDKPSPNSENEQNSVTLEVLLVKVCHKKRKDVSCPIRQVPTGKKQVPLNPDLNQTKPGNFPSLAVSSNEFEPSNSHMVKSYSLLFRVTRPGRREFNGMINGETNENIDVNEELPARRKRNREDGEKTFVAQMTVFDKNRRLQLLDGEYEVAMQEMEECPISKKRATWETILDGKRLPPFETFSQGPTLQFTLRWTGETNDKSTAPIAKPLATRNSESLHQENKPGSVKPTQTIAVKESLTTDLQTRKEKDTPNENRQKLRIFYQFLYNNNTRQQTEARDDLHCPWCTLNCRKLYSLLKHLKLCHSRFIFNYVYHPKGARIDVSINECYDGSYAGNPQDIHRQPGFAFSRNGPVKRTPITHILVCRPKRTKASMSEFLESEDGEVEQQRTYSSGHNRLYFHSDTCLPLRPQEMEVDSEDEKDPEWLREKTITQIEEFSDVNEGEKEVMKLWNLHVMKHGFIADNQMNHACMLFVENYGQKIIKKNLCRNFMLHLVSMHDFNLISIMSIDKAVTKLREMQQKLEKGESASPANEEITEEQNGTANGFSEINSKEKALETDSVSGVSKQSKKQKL
Sequence of PRC2 protein complex comprising EZH2(Y641F) (Q09028 whole entry partner): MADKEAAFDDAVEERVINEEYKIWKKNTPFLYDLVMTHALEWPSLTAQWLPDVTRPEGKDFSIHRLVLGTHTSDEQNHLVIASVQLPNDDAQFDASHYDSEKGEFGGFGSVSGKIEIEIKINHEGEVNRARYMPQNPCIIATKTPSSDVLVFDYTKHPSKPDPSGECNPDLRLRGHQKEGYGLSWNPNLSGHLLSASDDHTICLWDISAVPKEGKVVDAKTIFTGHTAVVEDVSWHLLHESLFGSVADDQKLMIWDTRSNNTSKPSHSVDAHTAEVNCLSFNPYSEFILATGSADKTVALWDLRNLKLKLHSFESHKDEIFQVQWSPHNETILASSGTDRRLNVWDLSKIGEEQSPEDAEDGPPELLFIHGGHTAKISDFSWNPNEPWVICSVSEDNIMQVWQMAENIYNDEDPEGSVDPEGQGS
Sequence of PRC2 protein complex comprising EZH2(Y641F) (Q6ZN18 whole entry partner): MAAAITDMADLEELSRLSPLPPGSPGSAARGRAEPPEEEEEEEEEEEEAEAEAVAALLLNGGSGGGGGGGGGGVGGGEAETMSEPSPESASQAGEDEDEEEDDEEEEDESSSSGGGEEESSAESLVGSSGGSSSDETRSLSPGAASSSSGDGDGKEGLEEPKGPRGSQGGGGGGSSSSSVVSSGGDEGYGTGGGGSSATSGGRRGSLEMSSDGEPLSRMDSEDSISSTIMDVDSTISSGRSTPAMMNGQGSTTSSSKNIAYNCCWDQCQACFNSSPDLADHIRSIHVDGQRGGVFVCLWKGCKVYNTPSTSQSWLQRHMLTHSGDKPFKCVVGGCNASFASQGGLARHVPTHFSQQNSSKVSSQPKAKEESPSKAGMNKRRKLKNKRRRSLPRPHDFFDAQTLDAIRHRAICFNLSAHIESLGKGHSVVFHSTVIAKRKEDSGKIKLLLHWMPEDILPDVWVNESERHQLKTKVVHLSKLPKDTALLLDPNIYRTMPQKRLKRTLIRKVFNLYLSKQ
Sequence of EZH2 (Q15910 whole entry): as the sequence (Q15910 whole entry Y641F) above, with F641Y counted along it
Sequence of EZH2 (O75530 whole entry partner): as the sequence (O75530 whole entry partner) above
Sequence of EZH2 (Q15022 whole entry partner): as the sequence (Q15022 whole entry partner) above
Sequence of EZH2 (Q09028 whole entry partner): as the sequence (Q09028 whole entry partner) above

Compound	IC50 [1]	IC50 ([2]; Homo sapiens)	activity compared with control compounds in the assay using a TR-FRET kit [1]	other results
CC[C@H](C)n1cc(C)c2c(C(=O)NCc3c(C)cc(C)[nH]c3=O)cc(-c3ccc(N4CCNCC4)nc3)cc21 [GSK126, reference compound]				IC50 [2]: 1.4 µM
CCN(C(=O)C1CCCC1)c1cc(-c2ccc(OCCN3CCOCC3)cc2C)cc(C(=O)NCc2c(C)cc(C)[nH]c2=O)c1C [Compound 63, N-((4,6-dimethyl-2-oxo-1,2-dihydropyridin-3-yl)methyl)-5-(N-ethylcyclopentanecarboxamido)-2′,4-dimethyl-4′-(2-morpholinoethoxyl)-[1,1′-diphenyl]-3-carboxamide]	0.103 µM	0.43 µM	superior activity than control compounds GSK126 and EPZ6438	
CCN(C(=O)C1CCCC1)c1cc(-c2ccc(N3CCNCC3)nc2)cc(C(=O)NCc2c(C)cc(C)[nH]c2=O)c1C [Compound 32, N-((4,6-dimethyl-2-oxo-1,2-dihydropyridin-3-yl)methyl)-3-(N-ethylcyclopentanecarboxamido)-2-methyl-5-(6-(piperazin-1-yl)pyridin-3-yl)-benzamide]		0.95 µM		
CCN(C(=O)C1CCCC1)c1cc(C#N)cc(C(=O)NCc2c(C)cc(C)[nH]c2=O)c1C [Compound 33, 5-cyano-N-((4,6-dimethyl-2-oxo-1,2-dihydropyridin-3-yl)methyl)-3-(N-ethylcyclopentanecarboxamido)-2-methylbenzamide]		0.67 µM		1 μM relative fluorescence intensity [3]: 123.27; 10 μM relative fluorescence intensity [3]: 224.69
CCN(C(=O)C1CCCC1)c1cc(-c2ccc(N3CCN(C(=O)OC(C)(C)C)CC3)nc2)cc(C(=O)NCc2c(C)cc(C)[nH]c2=O)c1C [Compound 29, tertbutyl-4-(5-(3-(((4,6-dimethyl-2-oxo-1,2-dihydropyridin-3-yl)methyl)carbamoyl)-5-(N-ethylcyclopentanecarboxamido)-4-methylphenyl)pyridin-2-yl)piperazin-1-carboxylate]		2.6 µM		1 μM relative fluorescence intensity [3]: 176.86; 10 μM relative fluorescence intensity [3]: 364.77
CCCc1cc(C)[nH]c(=O)c1CNC(=O)c1cc(-c2ccnc(N3CCN(CC4CC4)CC3)c2)cc(N(CC)C(=O)C2CCCC2)c1C [Compound 39, 5-(2-(4-(cyclopropylmethyl)piperazin-1-yl)pyridin-4-yl)-3-(N-ethylcyclopentanecarboxamido)-2-methyl-N-((6-methyl-2-oxo-4-propyl-1,2-dihydropyridin-3-yl)methyl)benzamide]		0.83 µM		
CCN(C(=O)C1CCCC1)c1cc(-c2ccc(OCCN3CCOCC3)cc2)cc(C(=O)NCc2c(C)cc(C)[nH]c2=O)c1C [Compound 40, N-((4,6-dimethyl-2-oxo-1,2-dihydropyridin-3-yl)methyl)-5-(N-ethylcyclopentanecarboxamido)-4-methyl-4′-(2-morpholinoethoxyl)-[1,1′-diphenyl]-3-carboxamide]	0.22 µM	0.24 µM		
CCN(C(=O)C1CCCC1)c1cc(-c2ccc(NS(=O)(=O)C3CC3)cc2)cc(C(=O)NCc2c(C)cc(C)[nH]c2=O)c1C [Compound 28, 4′-(cyclopropanesulfonamide)-N-((4,6-dimethyl-2-oxo-1,2-dihydropyridin-3-yl)methyl)-5-(N-ethylcyclopentanecarboxamido)-4-methyl-[1,1′-diphenyl]-3-carboxamide]				1 μM relative fluorescence intensity [3]: 163.93; 10 μM relative fluorescence intensity [3]: 345.23
CCN(C(=O)C1CCCC1)c1cc(-c2ccnc(N3CCN(C)CC3)c2)cc(C(=O)NCc2c(C)cc(C)[nH]c2=O)c1C [Compound 17, N-((4,6-dimethyl-2-oxo-1,2-dihydropyridin-3-yl)methyl)-3-(N-ethylcyclopentanecarboxamido)-2-methyl-5-(2-(4-methylpiperazin-1-yl)pyridin-4-yl)benzamide]				1 μM relative fluorescence intensity [3]: 172; 3 μM relative fluorescence intensity ([3]; compound 3 μM): 223; 10 μM relative fluorescence intensity [3]: 303

More lines, in order of falling IC50 ([2]; Homo sapiens), values ahead:

IC50 [1]	IC50 ([2]; Homo sapiens)	Compound	activity compared with control compounds in the assay using a TR-FRET kit [1]	other results
0.515 µM	0.23 µM	CCN(C(=O)C1CCCC1)c1cc(-c2ccnc(N3CCN(CC4CC4)CC3)c2)cc(C(=O)NCc2c(C)cc(C)[nH]c2=O)c1C [Compound 38, 5-(2-(4-(cyclopropylmethyl)piperazin-1-yl)pyridin-4-yl)-N-((4,6-dimethyl-2-oxo-1,2-dihydropyridin-3-yl)methyl)-3-(N-ethylcyclopentanecarboxamido)-2-methylbenzamide]		
	0.126 µM	CCN(C(=O)C1CCCC1)c1cc(-c2ccc(CN3CCOCC3)cc2)cc(C(=O)NCc2c(C)cc(C)[nH]c2=O)c1C [Compound 16, N-((4,6-dimethyl-2-oxo-1,2-dihydropyridin-3-yl)methyl)-5-(N-ethylcyclopentanecarboxamido)-4-methyl-4′-(morpholinomethyl)-[1,1′-diphenyl]-3-carboxamide]		
0.023 µM	0.093 µM	CCN(C(=O)C1CC1)c1cc(-c2ccc(OCCN3CCOCC3)c(F)c2)cc(C(=O)NCc2c(C)cc(C)[nH]c2=O)c1C [Compound 74, N-((4,6-dimethyl-2-oxo-1,2-dihydropyridin-3-yl)methyl)-5-(N-ethylcyclopropanecarboxamido)-3′-fluoro-4-methyl-4′-(2-morpholinoethoxyl)-[1,1′-diphenyl]-3-carboxamide]	superior activity than control compounds GSK126 and EPZ6438	
0.444 µM	0.087 µM	CCN(C(=O)C1CCCC1)c1cc(-c2ccc(N3CCNCC3)cc2)cc(C(=O)NCc2c(C)cc(C)[nH]c2=O)c1C [Compound 31, N-((4,6-dimethyl-2-oxo-1,2-dihydropyridin-3-yl)methyl)-5-(N-ethylcyclopentanecarboxamido)-4-methyl-4′-(piperazin-1-yl)-[1,1′-diphenyl]-3-carboxamide]		
	0.086 µM	CCN(C(=O)C1CC1)c1cc(-c2ccc(CN3CCOCC3)cc2)cc(C(=O)NCc2c(C)cc(C)[nH]c2=O)c1C [Compound 5, N-((4,6-dimethyl-2-oxo-1,2-dihydropyridin-3-yl)methyl)-5-(N-ethylcyclopropanecarboxamido)-4-methyl-4′-(morpholinomethyl)-[1,1′-diphenyl]-3-carboxamide]		
0.0806 µM	0.073 µM	CCN(C(=O)C1CCCC1)c1cc(-c2ccc(CN3CCN(C(=O)OC(C)(C)C)CC3)cc2)cc(C(=O)NCc2c(C)cc(C)[nH]c2=O)c1C [Compound 24, tert-butyl-4-((3′-(((4,6-dimethyl-2-oxo-1,2-dihydropyridin-3-yl)methyl)carbamoyl)-5′-(N-ethylcyclopentanecarboxamido)-4′-methyl-[1,1′-diphenyl]-4-yl)methyl)piperazin-1-carboxylate]	superior activity than control compounds GSK126 and EPZ6438	
	0.041 µM	CCN(C(=O)C1CC1)c1cc(-c2cnc(N3CCN(CC4CC4)CC3)cc2C)cc(C(=O)NCc2c(C)cc(C)[nH]c2=O)c1C [Compound 71, 5-(6-(4-(cyclopropylmethyl)piperazin-1-yl)-4-methylpyridin-3-yl)-N-((4,6-dimethyl-2-oxo-1,2-dihydropyridin-3-yl)methyl)-3-(N-ethylcyclopropanecarboxamido)-2-methylbenzamide]	superior activity than control compounds GSK126 and EPZ6438	
0.103 µM	0.03 µM	CCN(C(=O)C1CC1)c1cc(-c2ccc(OCCCN3CCOCC3)cc2C)cc(C(=O)NCc2c(C)cc(C)[nH]c2=O)c1C [Compound 64, N-((4,6-dimethyl-2-oxo-1,2-dihydropyridin-3-yl)methyl)-5-(N-ethylcyclopropanecarboxamido)-2′,4-dimethyl-4′-(3-morpholinopropoxy)-[1,1′-diphenyl]-3-carboxamide]	superior activity than control compounds GSK126 and EPZ6438	effect compared with control compounds in Western Blot verification on cells [2]: superior effects than control compounds EPZ6438 and GSK126
0.029 µM	0.024 µM	CCN(C(=O)C1CC1)c1cc(-c2ccc(OCCCN3CCOCC3)c(F)c2)cc(C(=O)NCc2c(C)cc(C)[nH]c2=O)c1C [Compound 65, N-((4,6-dimethyl-2-oxo-1,2-dihydropyridin-3-yl)methyl)-5-(N-ethylcyclopropanecarboxamido)-3′-fluoro-4-methyl-4′-(3-morpholinopropoxy)-[1,1′-diphenyl]-3-carboxamide]	superior activity than control compounds GSK126 and EPZ6438	effect compared with control compounds in Western Blot verification on cells [2]: superior effects than control compounds EPZ6438 and GSK126
